# Measured values published in PubChem BioAssay (NCI).
#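 The compound was tested at five concentrations on cells cultured in 96-well plates, with a 48-hour exposure period. Here, GI50 denotes the concentration required for 50% inhibition of growth. The concentration for full growth arrest is given as TGI.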
# Experiments:
# Assay in all cases: inhibition of tumour cell growth, NCI panel, 48 h
# [1] = tested on: HCT-15 colon
# [2] = tested on: SK-OV-3 ovarian
# [3] = tested on: NCI-H226 lung
# [4] = tested on: SW-620 colon
# [5] = tested on: NCI-H460 lung
# [6] = tested on: CCRF-CEM leukemia
# [7] = tested on: KM12 colon
# [8] = tested on: U251 CNS
# [9] = tested on: K-562 leukemia
# [10] = tested on: NCI/ADR-RES ovarian
# [11] = tested on: MDA-MB-231 breast
# [12] = tested on: SF-268 CNS
# [13] = tested on: HT29 colon
# [14] = tested on: EKVX NSCLC
# [15] = tested on: HS 578T breast
# [16] = tested on: HL-60(TB) leukemia
# [17] = tested on: SK-MEL-28 melanoma
# [18] = tested on: SF-539 CNS
# [19] = tested on: PC-3 prostate
# [20] = tested on: T-47D breast
# [21] = tested on: SNB-75 CNS
# [22] = tested on: UACC-62 melanoma
# [23] = tested on: RPMI-8226 leukemia
# [24] = tested on: ACHN renal
# [25] = tested on: UACC-257 melanoma
# [26] = tested on: LOX IMVI melanoma
# [27] = tested on: NCI-H23 lung
# [28] = tested on: IGROV1 ovarian
# [29] = tested on: HOP-62 NSCLC
structure (smiles),measurement,setting,value
CC(OC(=O)N(N(CCCl)S(C)(=O)=O)S(C)(=O)=O)c1ccc([N+](=O)[O-])cc1 (stereo not drawn),GI50,[1],> 100 µM
same,TGI,[1],> 100 µM
same,GI50,[2],> 100 µM
same,TGI,[2],> 100 µM
same,GI50,[3],29.1 µM
same,TGI,[3],79.3 µM
same,GI50,[4],> 67.9 µM
same,TGI,[4],> 100 µM
same,GI50,[5],> 78.7 µM
same,TGI,[5],> 100 µM
same,GI50,[6],0.179 µM
same,TGI,[6],15.9 µM
same,GI50,[7],> 82 µM
same,TGI,[7],> 100 µM
same,GI50,[8],42.5 µM
same,TGI,[8],> 100 µM
same,GI50,[9],35.7 µM
same,TGI,[9],> 100 µM
same,GI50,[10],35.4 µM
same,TGI,[10],> 100 µM
same,GI50,[11],> 51 µM
same,TGI,[11],96.8 µM
same,GI50,[12],> 100 µM
same,TGI,[12],> 100 µM
same,GI50,[13],65 µM
same,TGI,[13],> 100 µM
same,GI50,[14],23.4 µM
same,TGI,[14],> 76.9 µM
same,GI50,[15],> 54.7 µM
same,TGI,[15],> 92 µM
same,GI50,[16],40.1 µM
same,TGI,[16],> 100 µM
same,GI50,[17],> 100 µM
same,TGI,[17],> 100 µM
same,GI50,[18],3.42 µM
same,TGI,[18],> 47.5 µM
same,GI50,[19],> 66.7 µM
same,TGI,[19],> 100 µM
same,GI50,[20],> 69.2 µM
same,TGI,[20],> 100 µM
same,GI50,[21],> 89.1 µM
same,TGI,[21],> 100 µM
same,GI50,[22],29.6 µM
same,TGI,[22],> 100 µM
same,GI50,[23],> 40.4 µM
same,TGI,[23],> 61.4 µM
same,GI50,[24],> 100 µM
same,TGI,[24],> 100 µM
same,GI50,[25],76.1 µM
same,TGI,[25],> 100 µM
same,GI50,[26],51.2 µM
same,TGI,[26],> 100 µM
same,GI50,[27],39.1 µM
same,TGI,[27],> 100 µM
same,GI50,[28],> 96.6 µM
same,TGI,[28],> 100 µM
same,GI50,[29],29.4 µM
same,TGI,[29],> 100 µM
